Source: US11945793B1, “9-(2-hydroxypyridin-3-yl)-10[3-(dimethylamino)propyl]-3,4,6,7,9,10-hexahydroacridine-1,8(2H,5H)-dione as an antimicrobial compound” (KING FAISAL UNIVERSITY, priority 2023, dated 2024)

Tests used:
Assay type in all cases: cell-based
Conditions in all cases: after 10, 20, 40 and 60 minutes at all dilutions 1:100, 1:200, 1:400, 1:800
Staphylococcus aureus = assay: Antimicrobial screening by agar dilution, St. aureus
Protocol: (§1) The antibacterial properties of the synthesized compound 9-(2-hydroxypyridin-3-yl)-10-[3-(dimethylamino)propyl]-3,4,6,7,9,10-hexahydroacridine-1,8(2H,5H)-dione were studied by the method of agar dilution. Test solutions of each compound was prepared in concentration of 1% using dimethylformamide as a solvent then they are diluted in physiological solution to obtain the final experimental dilutions 1:100, 1:200, 1:400, 1:800. The effect of these substances are compared with furacillin in a controllable study. The testing microbes used were gram positive bacteria Staphylococcus aureus, gram negative bacteria Pseudomonas aeruginosa and Escherichia coli and Candida albicans fungus. The experiments used for this survey were meat-pentonlu agar (EPA) for cultivation of bacteria and Saburo environment for the fungus. Each experiment used 1 mL of test solution on each plate […]. Two drops of emulsified with microbes feel were added. All experimental samples were taken from the agar after 10, 20, 40, 60 minutes in the environment on the basis of Patrk planted. The bacteria were cultivated at a temperature of 37° C. for 1 day and the mushroom was kept in a thermostat for […] at a temperature of 28° C. Then results were checked.

Escherichia coli = assay: Antimicrobial screening by agar dilution, E. coli
Protocol: as §1

Pseudomonas aeruginosa = assay: Antimicrobial screening by agar dilution, Ps. aeruginosa
Protocol: as §1

Candida albicans = assay: Antimicrobial (antifungal) screening by agar dilution, Candida albicans
Protocol: as §1

Measured: inhibition activity (in words)

CN(C)CCCN1C2=C(C(=O)CCC2)C(c2cccnc2O)C2=C1CCCC2=O [9-(2-hydroxypyridin-3-yl)-10-[3-(dimethylamino)propyl]-3,4,6,7,9,10-hexahydroacridine-1,8(2H,5H)-dione]
highest inhibition activity: Staphylococcus aureus | Escherichia coli | Pseudomonas aeruginosa | Candida albicans
